Laboratory results taken from publication PMC9611727, “Optimization of a Novel Mandelamide-Derived Pyrrolopyrimidine Series of PERK Inhibitors” (Pharmaceutics, 2022).

Experiments:
Experiment in all cases: scanMAX kinase panel
Format in all cases: binding
Settings in all cases: read-out: % Control; for remaining binding at 1 µM: 1000 nM
FLT3(R834Q) = target: T1, FLT3(R834Q) (Homo sapiens, UniProt P36888, R834Q)
T1 construct: purchased DiscoverX scanMAX
T1 sequence (P36888 27-993 R834Q): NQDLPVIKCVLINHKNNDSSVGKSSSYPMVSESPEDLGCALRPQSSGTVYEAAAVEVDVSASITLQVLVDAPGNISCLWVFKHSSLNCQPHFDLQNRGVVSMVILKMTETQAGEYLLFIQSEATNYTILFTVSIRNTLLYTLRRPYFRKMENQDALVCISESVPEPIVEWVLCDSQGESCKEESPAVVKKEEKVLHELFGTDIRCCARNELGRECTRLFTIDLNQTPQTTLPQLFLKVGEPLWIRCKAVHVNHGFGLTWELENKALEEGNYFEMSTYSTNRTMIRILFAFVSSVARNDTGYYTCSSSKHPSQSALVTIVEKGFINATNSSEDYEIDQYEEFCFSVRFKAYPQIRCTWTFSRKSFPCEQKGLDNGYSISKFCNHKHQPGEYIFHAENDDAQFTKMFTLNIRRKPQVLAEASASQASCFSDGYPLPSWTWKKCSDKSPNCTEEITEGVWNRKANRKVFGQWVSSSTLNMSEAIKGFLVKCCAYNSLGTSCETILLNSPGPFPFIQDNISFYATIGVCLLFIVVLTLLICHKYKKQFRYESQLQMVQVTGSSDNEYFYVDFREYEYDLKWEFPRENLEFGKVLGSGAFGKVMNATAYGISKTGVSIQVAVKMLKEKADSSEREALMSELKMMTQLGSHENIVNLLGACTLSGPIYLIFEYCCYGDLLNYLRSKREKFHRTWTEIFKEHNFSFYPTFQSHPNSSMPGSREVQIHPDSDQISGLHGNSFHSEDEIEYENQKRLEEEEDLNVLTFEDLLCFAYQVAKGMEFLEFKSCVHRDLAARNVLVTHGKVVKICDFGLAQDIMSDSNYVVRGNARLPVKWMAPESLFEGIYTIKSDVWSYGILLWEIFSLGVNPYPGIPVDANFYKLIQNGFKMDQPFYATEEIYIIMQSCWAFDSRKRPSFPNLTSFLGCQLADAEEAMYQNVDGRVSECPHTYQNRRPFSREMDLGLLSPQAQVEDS
From the text: (§1) Supplemental Table S2. scanMAXSM Kinome Assay Results. Complete tabulated data of all 468 kinases from the panel, including
(§2) 403 wild-type and 65 mutant isoforms. […] Cmpd 11 and Cmpd 24

PIP5K1C = target: T2, PIP5K1C (Homo sapiens, UniProt O60331)
T2 construct: purchased DiscoverX scanMAX
T2 sequence (O60331 whole entry): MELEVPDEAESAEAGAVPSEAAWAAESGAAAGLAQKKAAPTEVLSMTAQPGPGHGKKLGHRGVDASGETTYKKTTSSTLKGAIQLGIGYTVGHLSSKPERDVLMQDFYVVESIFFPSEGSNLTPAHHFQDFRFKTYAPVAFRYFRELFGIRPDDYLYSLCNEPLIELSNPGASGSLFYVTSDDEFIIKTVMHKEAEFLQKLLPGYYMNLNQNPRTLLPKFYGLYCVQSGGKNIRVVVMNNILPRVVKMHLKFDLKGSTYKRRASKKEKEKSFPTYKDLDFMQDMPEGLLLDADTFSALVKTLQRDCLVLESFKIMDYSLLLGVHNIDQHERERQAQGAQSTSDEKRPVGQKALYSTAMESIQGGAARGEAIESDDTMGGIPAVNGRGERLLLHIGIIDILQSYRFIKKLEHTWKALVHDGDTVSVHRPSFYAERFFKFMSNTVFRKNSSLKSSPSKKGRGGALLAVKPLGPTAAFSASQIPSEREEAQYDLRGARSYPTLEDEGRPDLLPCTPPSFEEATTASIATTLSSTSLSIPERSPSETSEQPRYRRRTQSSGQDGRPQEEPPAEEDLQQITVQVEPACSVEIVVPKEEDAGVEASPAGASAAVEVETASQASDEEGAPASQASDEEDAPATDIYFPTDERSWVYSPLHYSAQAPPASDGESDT
From the text: as §1, §2

VRK2 = target: T3, VRK2 (Homo sapiens, UniProt Q86Y07)
T3 construct: purchased DiscoverX (scanMAX panel)
T3 sequence (Q86Y07 whole entry): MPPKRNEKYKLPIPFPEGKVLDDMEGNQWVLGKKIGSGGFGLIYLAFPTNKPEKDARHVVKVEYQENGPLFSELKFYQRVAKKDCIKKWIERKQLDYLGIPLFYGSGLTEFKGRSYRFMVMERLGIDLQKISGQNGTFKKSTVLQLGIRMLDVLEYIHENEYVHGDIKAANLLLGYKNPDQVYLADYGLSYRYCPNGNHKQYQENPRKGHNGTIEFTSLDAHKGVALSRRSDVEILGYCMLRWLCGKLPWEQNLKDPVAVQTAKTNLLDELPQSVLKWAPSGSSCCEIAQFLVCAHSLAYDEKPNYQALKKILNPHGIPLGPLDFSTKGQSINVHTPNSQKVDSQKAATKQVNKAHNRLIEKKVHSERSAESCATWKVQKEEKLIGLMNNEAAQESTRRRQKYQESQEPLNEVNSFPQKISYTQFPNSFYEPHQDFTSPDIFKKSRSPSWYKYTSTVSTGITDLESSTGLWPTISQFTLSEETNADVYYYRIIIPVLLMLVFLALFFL
From the text: as §1, §2

YSK4 = target: T4, YSK4 (Homo sapiens, UniProt Q56UN5)
T4 construct: purchased DiscoverX (scanMAX panel)
T4 sequence (Q56UN5 1-1328): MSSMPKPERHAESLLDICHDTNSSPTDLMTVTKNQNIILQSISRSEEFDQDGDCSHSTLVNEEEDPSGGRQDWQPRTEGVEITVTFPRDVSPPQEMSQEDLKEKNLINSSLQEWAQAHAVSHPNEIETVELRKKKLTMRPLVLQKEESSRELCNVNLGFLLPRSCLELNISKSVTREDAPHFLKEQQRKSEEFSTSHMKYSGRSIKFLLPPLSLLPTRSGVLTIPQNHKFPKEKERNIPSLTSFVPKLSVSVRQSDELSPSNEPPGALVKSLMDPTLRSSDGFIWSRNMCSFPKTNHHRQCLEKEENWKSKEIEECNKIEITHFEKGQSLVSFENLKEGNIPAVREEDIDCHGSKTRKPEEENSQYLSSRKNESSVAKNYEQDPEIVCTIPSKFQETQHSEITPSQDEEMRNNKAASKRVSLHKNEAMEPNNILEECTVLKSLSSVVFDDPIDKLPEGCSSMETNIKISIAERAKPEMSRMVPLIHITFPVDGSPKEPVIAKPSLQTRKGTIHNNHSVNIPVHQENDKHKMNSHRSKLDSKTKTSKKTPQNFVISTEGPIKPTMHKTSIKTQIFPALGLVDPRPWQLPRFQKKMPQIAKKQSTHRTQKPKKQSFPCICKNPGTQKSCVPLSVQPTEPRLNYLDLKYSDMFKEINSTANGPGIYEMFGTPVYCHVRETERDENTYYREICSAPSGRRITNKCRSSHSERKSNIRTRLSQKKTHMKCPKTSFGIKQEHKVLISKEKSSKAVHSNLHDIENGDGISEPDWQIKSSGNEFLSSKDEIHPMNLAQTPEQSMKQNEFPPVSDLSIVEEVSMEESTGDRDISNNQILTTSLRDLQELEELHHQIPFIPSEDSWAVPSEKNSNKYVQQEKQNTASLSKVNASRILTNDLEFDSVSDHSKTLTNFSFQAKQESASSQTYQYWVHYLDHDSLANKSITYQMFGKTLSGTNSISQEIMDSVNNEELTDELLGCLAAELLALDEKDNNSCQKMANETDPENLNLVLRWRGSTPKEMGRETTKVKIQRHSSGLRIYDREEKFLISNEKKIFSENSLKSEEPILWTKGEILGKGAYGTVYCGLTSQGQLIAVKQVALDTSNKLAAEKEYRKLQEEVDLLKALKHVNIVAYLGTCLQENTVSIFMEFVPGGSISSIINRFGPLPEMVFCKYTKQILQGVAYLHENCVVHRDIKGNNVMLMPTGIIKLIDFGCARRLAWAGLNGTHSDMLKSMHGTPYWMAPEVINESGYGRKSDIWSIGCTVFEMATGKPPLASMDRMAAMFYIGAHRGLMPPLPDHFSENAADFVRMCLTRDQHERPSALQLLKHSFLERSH
From the text: as §1, §2

| SMILES | remaining binding at 1 µM (FLT3(R834Q)) | remaining binding at 1 µM (PIP5K1C) | remaining binding at 1 µM (VRK2) | remaining binding at 1 µM (YSK4) | remaining binding at 0.1 µM (FLT3(R834Q); 100 nM) | remaining binding at 0.1 µM (PIP5K1C; 100 nM) | remaining binding at 0.1 µM (VRK2; 100 nM) | remaining binding at 0.1 µM (YSK4; 100 nM) |
| --- | --- | --- | --- | --- | --- | --- | --- | --- |
| Cc1cc(NC(=O)[C@H](O)c2cccc(F)c2)ccc1-c1cn(C)c2ncnc(N)c12 [Compound 11, (R)-N-(4-(4-amino-7-methyl-7H-pyrrolo[2,3-d]pyrimidin-5-yl)-3-methylphenyl)-2-(3-fluorophenyl)-2-hydroxy acetamide] | 59% | 99% | 26% | 18% | – | – | – | – |
| Cc1nc(N)c2c(-c3ccc(NC(=O)[C@H](O)c4cccc(C(F)(F)F)c4)cc3C)cn(C)c2n1 [Compound 26] | 7.5% | 91% | 78% | 55% | 84% | 100% | 94% | 95% |
| Cc1nc(N)c2c(-c3ccc(NC(=O)[C@H](O)c4cccc(F)c4)cc3C)cn(C)c2n1 [Compound 24] | 98% | 34% | 100% | 100% | – | – | – | – |
